The target in the experiment is Glycogen synthase kinase-3 beta (Homo sapiens, UniProt P49841). The experiment can be described thus: GSK3beta kinase inhibitor potency, dose response, biochemical, luminescence, cell-free homogeneous, retest (AID 434954).
Chain of Glycogen synthase kinase-3 beta (P49841 whole entry): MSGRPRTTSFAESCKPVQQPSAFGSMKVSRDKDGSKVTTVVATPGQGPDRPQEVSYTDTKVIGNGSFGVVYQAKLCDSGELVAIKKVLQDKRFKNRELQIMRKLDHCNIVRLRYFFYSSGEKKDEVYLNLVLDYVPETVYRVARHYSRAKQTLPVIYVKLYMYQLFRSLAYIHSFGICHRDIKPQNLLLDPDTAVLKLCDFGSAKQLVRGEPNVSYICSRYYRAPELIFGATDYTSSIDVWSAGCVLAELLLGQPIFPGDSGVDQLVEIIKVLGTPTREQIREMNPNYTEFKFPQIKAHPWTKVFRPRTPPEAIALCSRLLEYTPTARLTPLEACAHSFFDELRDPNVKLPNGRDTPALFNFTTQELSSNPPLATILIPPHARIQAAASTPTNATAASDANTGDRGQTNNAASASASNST
As usually defined, the EC50 is the concentration needed to bring the measured effect to its halfway point. A higher EC50 goes with a less potent agent. Consider `CC1(C)CC(=O)C=C(Nc2ccc3c(c2)OCCO3)C1` [3-(2,3-dihydro-1,4-benzodioxin-6-ylamino)-5,5-dimethyl-1-cyclohex-2-enone], for which the EC50 is over 300 µM. For `O=C(Nc1cccnc1)Nc1ccccn1` [MLS000104821] the value was over 300 µM; for `COc1ccc(-n2sc3c(c2=S)-c2cc(OC)ccc2NC3(C)C)cc1`, over 300 µM. As for `COc1cccc(NC2=CC(=O)CC(C)(C)C2)c1`, the figure is over 300 µM; as for `Clc1ccc(CSc2nnc(-c3ccncc3)o2)c(Cl)c1` [2-[(2,4-dichlorobenzyl)thio]-5-(4-pyridyl)-1,3,4-oxadiazole], 6.31 µM; as for `CC(=O)N1CCc2c(sc(NC(=O)CN3C(=O)c4ccccc4C3=O)c2C(N)=O)C1` [MLS000419451], 19.5 µM. As for `Nc1nonc1-n1nnc(C(=O)NN=Cc2cccc(O)c2)c1CN1CCCC1` [1-(4-azanyl-1,2,5-oxadiazol-3-yl)-N-[(3-hydroxyphenyl)methylideneamino]-5-(pyrrolidin-1-ylmethyl)-1,2,3-triazole-4-carboxamide], the figure is 12.8 µM; as for `Cc1ncsc1CCSc1nc2ccccc2c(=O)n1C` [3-methyl-2-{[2-(4-methyl-1,3-thiazol-5-yl)ethyl]thio}-4(3H)-quinazolinone], 18.8 µM; as for `CCOCCOC(=O)c1ccc(-n2cnc(C)n2)nc1` [SMR000337218], over 300 µM.

Regarding `COc1ccc(C2CC(=O)N3CN(c4ccc(C)c(Cl)c4)CSC3=C2C#N)cc1` (stereo not drawn), the 50% effective concentration (EC50) was over 300 µM.

In turn, `CCCN(CCC)Cc1c(C(=O)NN=Cc2ccoc2)nnn1-c1nonc1N` [1-(4-amino-1,2,5-oxadiazol-3-yl)-5-[(dipropylamino)methyl]-N-(3-furanylmethylideneamino)-4-triazolecarboxamide] yielded an EC50 of 8.52 µM. This counts as single-digit micromolar. The molecule `CC(CC(=O)NCc1ccccc1)=NNC(=O)c1cnccn1` [MLS000701004] had an EC50 of over 300 µM. Regarding `Cc1nonc1-c1nnc(-c2nonc2N)[nH]1` [SMR000040798], the EC50 came to 29.7 µM. As for `CCOC(=O)C1C(C)=Nc2ncnn2C1c1cc(OC)ccc1OC` (stereo not drawn) [MLS000112815], the figure is over 300 µM. As for `COc1cccc(-c2c(C(=O)NN=C(C)c3ccncc3)nnn2-c2nonc2N)c1` [1-(4-amino-1,2,5-oxadiazol-3-yl)-5-(3-methoxyphenyl)-N-(1-pyridin-4-ylethylideneamino)-4-triazolecarboxamide], the figure is 19 µM; as for `COc1ccc(Nc2nc3ccccc3s2)cc1` [1,3-benzothiazol-2-yl-(4-methoxyphenyl)amine], over 300 µM.

`Cc1ccccc1CSc1nnc(-c2ccncc2)o1` [2-[(2-methylphenyl)methylsulfanyl]-5-pyridin-4-yl-1,3,4-oxadiazole] registered an EC50 of 22.1 µM. This counts as double-digit micromolar. `CN1CCN(c2nc(-c3ccccc3)nc(-c3ccccc3)c2C#N)CC1` [4-(4-methylpiperazin-1-yl)-2,6-diphenyl-pyrimidine-5-carbonitrile]: the EC50 is over 300 µM. For the molecule `O=c1cc(NCc2ccccc2)nc2n1CCCS2` [MLS000027636], the EC50 is over 300 µM. In turn, `COc1ccc(Nc2nc(NCCN3CCOCC3)nc(Nc3ccc(OC)cc3)n2)cc1` returned an EC50 of over 300 µM. Molecule `Fc1ccc(CSc2nnc(-c3ccncc3)o2)cc1` had an EC50 of over 300 µM. For `c1ccc(Nc2nc(-c3ccccc3)nc3ccccc23)cc1` [N,2-diphenylquinazolin-4-amine] the value was over 300 µM. Regarding `Cc1ccc(OCCn2c(S)nc3c(N)ncnc32)cc1` [MLS000765129], the EC50 is over 300 µM.

In turn, `Cc1cccc(N2CCN(C(=O)c3csc4ccccc34)CC2C)c1` (stereo not drawn) [4-(1-benzothien-3-ylcarbonyl)-2-methyl-1-(3-methylphenyl)piperazine] yielded an EC50 of over 300 µM.

For `CC(C)Nc1nc(-c2ccncc2)nc(-c2ccc(Cl)cc2)c1C#N` [SMR000333194], the EC50 is over 300 µM. As for `CCOC(=O)c1cnc2ccc(C(=O)OC)cc2c1Nc1ccc(C(=O)O)cc1` [SMR000273135], the figure is over 300 µM.

`C=CCNc1nc(N)c([N+](=O)[O-])c(NCCO)n1` [2-(2-Allylamino-6-amino-5-nitro-pyrimidin-4-ylamino)-ethanol] gave an EC50 of 46.5 µM.

As to `c1ccc(CSc2ccc3nnc(-c4cccnc4)n3n2)cc1` [MLS000724858], the EC50 is over 300 µM. As for `CCC(O)CNc1nc(SC)nc2sc3c(c12)CCN(C)C3` (stereo not drawn), the figure is 1.75 µM; as for `COc1ccc2nc(NC(=O)C3CCCO3)sc2c1` (stereo not drawn) [N-(6-methoxy-1,3-benzothiazol-2-yl)-2-oxolanecarboxamide], over 300 µM; as for `COc1ccc(NC(=O)c2cccc(N3C(=O)c4cccc([N+](=O)[O-])c4C3=O)c2)cc1` [MLS001125857], over 300 µM. With `CCC1(C)NC(=O)N(CC(=O)Nc2sc3c(c2C(N)=O)CCC3)C1=O` (stereo not drawn) [2-[2-[4-ethyl-4-methyl-2,5-bis(oxidanylidene)imidazolidin-1-yl]ethanoylamino]-5,6-dihydro-4H-cyclopenta[b]thiophene-3-carboxamide], the EC50 worked out at 30.3 µM. For `Cc1c(C(=O)O)sc2ncnc(N3CCCCC3C)c12` (stereo not drawn) [5-methyl-4-(2-methyl-1-piperidinyl)thieno[2,3-d]pyrimidine-6-carboxylic acid] the value was over 300 µM. `CC1=C(C(=O)Nc2ccccc2F)C(c2cccs2)C2C(=O)CCCC2=N1` (stereo not drawn) returned an EC50 of over 300 µM.

For the molecule `Cc1ccc(C)c(CSc2nnc(-c3cccnc3)o2)c1` [MLS000074430], the EC50 is over 300 µM.

`O=C1Nc2ccccc2Nc2ccc([N+](=O)[O-])cc21` [SMR000550741] gave an EC50 of 25.4 µM. As to `CCOC(=O)c1nnn(-c2nonc2N)c1CN(CC)CC` [ethyl 1-(4-amino-1,2,5-oxadiazol-3-yl)-5-(diethylaminomethyl)triazole-4-carboxylate], the EC50 was over 300 µM. As for `CNC(=O)c1ccsc1NC(=O)C1CCN(S(=O)(=O)c2ccc(Cl)s2)CC1` [SMR000812824], the figure is over 300 µM; as for `CCCOc1ccc(-c2c(C(=O)NN=C(C)c3ccco3)nnn2-c2nonc2N)cc1`, 16.6 µM. For the molecule `O=C(COc1ccc2ccccc2c1)Nc1cccc2c1C(=O)NC2=O` [MLS000375387], the EC50 was over 300 µM. `COc1cccc2c1cc1c(=O)n(CC(=O)NCCCN3CCN(C)CC3)nc(C)n12` yielded an EC50 of over 300 µM. `C[C@]12C=CC(=O)C=C1CC[C@@H]1C2C(O)C[C@@]2(C)C1CC[C@]2(O)C(=O)COC(=O)CCC(=O)O` (stereo partly drawn) [4-[2-[(8S,10R,11S,13S,17R)-11,17-dihydroxy-10,13-dimethyl-3-oxo-7,8,9,11,12,14,15,16-octahydro-6H-cyclopenta[a]phenanthren-17-yl]-2-oxoethoxy]-4-oxobutanoic acid] returned an EC50 of over 300 µM. `Cc1cc(=O)nc2c3ccccc3n(CC(=O)NCCCN3CCCCC3C)n12` (stereo not drawn) [MLS001115992] came in with an EC50 of over 300 µM. Consider `CC(O)c1cccc(NC2=CC(=O)CC(C)(C)C2)c1` (stereo not drawn), for which the EC50 was over 300 µM. The molecule `O=C1N=C(Nc2ccccc2Cl)SC1=Cc1ccc(C(=O)O)cc1` [MLS001203362] showed an EC50 of over 300 µM. Take `CCCCn1nc(NC(=O)c2cccs2)c2cc3cc(OC)ccc3nc21` [SMR000046614]: the EC50 is 9.23 µM. For `Cc1ccsc1C1NC(=O)c2c(sc3c2CCCC3)N1` (stereo not drawn) [MLS000027648] the value was over 300 µM; for `Cc1c(Cl)cccc1NC(=S)N(C)CCC#N` [3-(3-chloro-2-methylphenyl)-1-(2-cyanoethyl)-1-methylthiourea], over 300 µM.

The record behind these values is BindingDB's records for doi:10.7270/Q2TX3CTT (Broad Institute, 2010).
